Results on twelve compounds are retold here after PubChem BioAssay (NCI).

Experiment in all cases: inhibition of tumour cell growth, NCI panel, 48 h
In assay [1] the test system is SF-268 CNS.
The test system of assay [2] is KM12 colon.
For assay [3], the system named is MOLT-4 leukemia.
Assay [4] concerns CAKI-1 renal.
Assay [5] deals with SF-295 CNS.
The test system of assay [6] is COLO 205 colon.
Assay [7] concerns M14 melanoma.
Assay [8] relates to K-562 leukemia.
The test system of assay [9] is UACC-62 melanoma.
Assay [10] relates to HCT-116 colon.

Several values for one entry are separate records, joined by “and”; a condition that tells them apart may be missing. Equal entries are not always repeated.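 Exposure lasted 48 hours, with cells grown in 96-well plates and compounds tested at five concentrations. Here, GI50 denotes the concentration required for 50% inhibition of growth. TGI is the concentration that stops growth completely.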

Consider `CC(C)(C)NC(C1=CC(C)(C)c2ccccc2C1=O)c1ccccc1` (stereo not drawn), for which the GI50 in [1] is 1.38 µM; in assay [2], 1.42 µM; in assay [3], 1.48 µM; in assay [4], 3.26 µM; in assay [5], 5.07 µM; in assay [6] it was 1.35 µM. Moreover, the GI50 was 1.52 µM in assay [7], 1.67 µM in assay [8], 1.3 µM in [9] and 1.35 µM in assay [10]. Besides, the TGI in assay [1] worked out at 2.74 µM; in assay [2], 2.73 µM; in assay [3] it was 4.6 µM; in assay [4] it was 13.4 µM; in assay [5], 17.8 µM; in assay [6] it was 2.63 µM. The TGI in [7] stood at 2.85 µM; in [8] it was 3.86 µM; in assay [9], 2.82 µM; in assay [10] it was 2.64 µM.
For the compound `O=c1cccccc1NCCOCCNc1cccccc1=O`, the TGI in assay [1], in assay [2], in assay [3], in assay [4], in [5] and in assay [6] was above 100 µM throughout. The TGI in [7], in assay [8], in [9] and in assay [10] was above 100 µM each time.
In the case of `Cc1nn(-c2nc3ccccc3s2)c(C)c1Oc1ccccc1O`, the GI50 was 5.31 µM in assay [1]; 6.99 µM in assay [2]; 2.56 µM in assay [3]; 10.9 µM in assay [4]; 3.2 µM in [5]; 15.7 µM in assay [6]. Further, the GI50 was 11.8 µM in assay [7], 1.94 µM in [8], 2.91 µM in [9] and 2.03 µM in [10]. Also, the TGI in assay [1] is 20.8 µM; in assay [2], 20.1 µM; in assay [3] it was 12.5 µM; in assay [4] it was 22.9 µM; in assay [5], 17.2 µM; in assay [6], 31.1 µM. For the same compound, the TGI was found to be 24.8 µM in assay [7], 19.4 µM in [8], 18.1 µM in assay [9] and 15.5 µM in assay [10].
Consider `O=C(CN1CCN(c2ncnc3ccccc23)CC1)Nc1ccc(Cl)cc1C(=O)c1ccccc1Cl`, for which the GI50 in [1] was 0.686 µM; in assay [3], 0.472 µM; in assay [4], 1.46 µM; in [5], 1.11 µM; in assay [6] it was 0.349 µM; in assay [7] it was 0.919 µM. The GI50 was 0.838 µM in [8], 0.579 µM in [9] and 0.417 µM in assay [10]. Moreover, the TGI in [1] was determined as 13 µM; in [2], 5.08 µM; in assay [4] it was 7.01 µM; in assay [5], 6.07 µM; in assay [6], 1.33 µM; in assay [7], 2.88 µM. In addition, the TGI in assay [8] is above 52.4 µM; in assay [9] it was 1.5 µM; in assay [10] it was 11 µM.
In the case of `CC1CC2(C)ON=C(c3ccccc3)N2c2ccccc2S1` (stereo not drawn), the GI50 in assay [1] was 36.3 µM; in assay [2], 17.5 µM; in assay [3], 16 µM; in [4], 78.6 µM; in [5], 28.9 µM; in assay [6], 22.6 µM. For the same compound, the GI50 was 31.7 µM in assay [7], 16.3 µM in [8], 21 µM in assay [9] and 21.4 µM in [10]. Further, the TGI in [2] is 42.5 µM; in assay [3], 44.9 µM; in assay [5], 79.1 µM; in assay [6] it was 56.2 µM; in assay [7] it was 83.2 µM; in [8], 43 µM. Further, the TGI was found to be 84.3 µM in assay [9] and 49.6 µM in assay [10].
For the compound `COC(=O)NC1C(C)OC(OC2C/C=C(/C)C3C=CC4C(OC5CC(OC6CC(O)C(OC7CC(O)C(OC)C(C)O7)C(C)O6)C(O)C(C)O5)C(C)CC(C)C4C3(C)/C(O)=C3\C(=O)OC4(CC(C)C(CO)=CC4/C=C\2C)C3=O)CC1(C)[N+](=O)[O-]` (stereo not drawn), the TGI in assay [1] is 50 µM and 55.1 µM; in assay [2], 16.6 µM and 25.2 µM; in [3], 50 µM and 20.2 µM; in assay [4] it was 47.3 µM and 41.1 µM; in assay [5] it was 50 µM and 38.9 µM; in assay [6], 16.3 µM and 13 µM. Further, the TGI is 17.2 µM and 32.7 µM in [7]; 14.7 µM and 71.8 µM in [8]; 16.7 µM and 18.4 µM in assay [9]; 14.8 µM and 23.4 µM in [10]. The GI50 in [2] was 9.15 µM; in assay [3], 18.2 µM; in assay [6], 9.29 µM; in assay [7], 16.9 µM; in assay [8], 3.64 µM; in [9] it was 9.44 µM. In addition, the GI50 in assay [10] is 8.04 µM.
In the case of `COC(=O)Nc1nc2ccc(Oc3ccc(NC(=O)Nc4cccc(C(=O)O)c4)cc3)cc2[nH]1`, the GI50 in assay [1] is 11.3 µM; in assay [2] it was 5.26 µM; in assay [3], 9.99 µM; in assay [4], above 23.8 µM; in assay [5], 5.61 µM; in assay [6] it was 6.21 µM. In addition, the GI50 in assay [7] was 6.75 µM; in assay [8] it was 6.51 µM; in [9] it was 5.35 µM; in assay [10], 8.82 µM. Besides, the TGI in [1] was above 25 µM; in [2], above 21.2 µM; in assay [3] it was above 25 µM; in assay [4], above 25 µM; in [5], above 21.7 µM; in assay [6] it was above 16.5 µM. Besides, the TGI in assay [7], in assay [8], in assay [9] and in [10] was above 25 µM in each case.
As for `CC(=O)[CH-]C(=O)c1ccccc1.CC(=O)[CH-]C(=O)c1ccccc1.CC[O-].CC[O-].[Zr+4]`, the GI50 was above 100 µM in [1]; above 100 µM in [2]; above 100 µM in assay [3]; 62.8 µM in [4]; above 100 µM in assay [5]; above 100 µM in assay [6]. The GI50 in assay [7], in assay [8], in assay [9] and in assay [10] was above 100 µM in each case. In addition, the TGI in assay [1], in assay [2], in [3], in [4], in assay [5] and in assay [6] was above 100 µM throughout. In addition, the TGI in assay [7], in assay [8], in assay [9] and in [10] was above 100 µM throughout.
For `COc1ccc2c(=O)c(C)c(-c3ccccc3)oc2c1CN(C)C`, the TGI in assay [1], in assay [2], in [3], in assay [4], in assay [5] and in assay [6] was above 100 µM throughout. Besides, the TGI in assay [7], in [8], in assay [9] and in [10] was above 100 µM in each case.
On to `C/C=C(\C)C(=O)N[C@H]1CC[C@]2(C)C3CC[C@@]4(C)C(CC[C@@H]4C(C)N(C)C)C3CCC2[C@H]1OC(C)=O` (stereo partly drawn), for which the GI50 in [1] is 1.39 µM; in assay [2] it was 2 µM; in [3], 1.58 µM; in assay [4], 2.11 µM; in [5] it was 1.88 µM; in [6], 1.59 µM. In addition, the GI50 in [7] was 1.85 µM; in assay [8], 0.524 µM; in assay [9], 1.95 µM; in assay [10], 1.04 µM. Besides, the TGI in assay [1] turned out to be 2.89 µM; in [2] it was 5.15 µM; in assay [3], 3.91 µM; in assay [4], 4.86 µM; in assay [5] it was 4.05 µM; in assay [6], 3.06 µM. Also, the TGI in [7] came out at 3.69 µM; in [8] it was 2.17 µM; in [9], 3.74 µM; in assay [10] it was 2.42 µM.
With `COc1ccc2c(c1)C(=O)/C(=C/c1cccc(OCC(=O)Nc3nc4c(s3)CCCC4)c1)O2`, the GI50 in assay [1] was 0.314 µM; in assay [2], 0.72 µM; in assay [3], 0.93 µM; in assay [4] it was 0.383 µM; in assay [5] it was 3.7 µM; in [6], 0.729 µM. Further, the GI50 in [7] was 1.81 µM; in [8], 1 µM; in assay [9] it was 5.23 µM; in [10], 1.13 µM. For the same compound, the TGI in assay [1] is 1.08 µM; in assay [2], 4.09 µM; in [3], above 100 µM; in assay [4], 0.804 µM; in assay [5], 15.8 µM; in [6], 2.02 µM. The TGI in [7] was 4.51 µM; in [8], above 23 µM; in assay [9] it was 18.4 µM; in assay [10] it was 2.34 µM.
Take `COc1ccc(C(=O)OCC2OC(n3cnc4c(=S)nc[nH]c43)C(OC(=O)c3ccc(OC)cc3)C2OC(=O)c2ccc(OC)cc2)cc1` (stereo not drawn): the TGI in [1], in assay [2], in assay [3], in assay [4], in assay [5] and in assay [6] was above 100 µM each time. The TGI in assay [7], in [8], in assay [9] and in [10] was above 100 µM in each case.
